Values joined by “and” are separate entries in the source; they are usually repeats but may differ in a detail not shown here. Equal entries are not always repeated.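 Cells were grown in 96-well plates and exposed to each compound for 48 hours at five concentrations; endpoints were interpolated linearly between bracketing concentrations, or set to the highest concentration if not reached. GI50 is the concentration that inhibits growth by half. TGI marks complete inhibition of growth.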
Test system: MDA-MB-468 breast
Test: NCI anticancer screen, dose series, 48 h

SMILES | GI50 | TGI
O=C1c2cccnc2C(=O)c2c1c(C(=O)NCCCN1CCCCC1)c1ccccn21 | 531 nM | 1890 nM
O=C1OCC2=C1C(c1ccc(Cl)c(Cl)c1)c1cc3c(cc1N2CCO)OCCO3 (stereo not drawn) | 95 nM | 394 nM
C/C(=C\c1ccc2ccccc2c1)[N+](=O)[O-] | 1560 nM | 3060 nM
CN1CCN(Cc2ccc(NC(=O)c3cncc(C#Cc4cnc(N)nc4)c3)cc2C(F)(F)F)CC1 | 684 nM | 7660 nM
O=S(=O)(c1ccc(Cl)cc1)C(Cl)(Cl)Cl | 1440 nM | 5500 nM
COc1ccc2c(c1)N(CCO)C1=C(C(=O)OC1)C2c1cccc(F)c1 (stereo not drawn) | 202 nM | 
O=C(Nc1ccc(OCc2nnc(-c3ccc(Cl)cc3)o2)c(F)c1)Nc1ccc(Cl)c(C(F)(F)F)c1 | 1800 nM | 7370 nM
c1cnn2ncc(-c3ccnc(NCCCN4CCOCC4)n3)c2c1 | 3450 nM | 10000 nM
CN1C(=O)N(C)C2C1NN=c1s/c(=C\c3ccc(C(F)(F)F)cc3)c(=O)n12 (stereo not drawn) | 510 nM | 26200 nM
COc1cc2c(cc1OCCCn1c(-c3ccccn3)nc3ccccc31)N=C[C@@H]1CCCN1C2=O | 1940 nM | 5640 nM
O=S(=O)(Nc1cc(Sc2cccc3cccnc23)c(O)c2ccccc12)c1ccc(F)cc1 | 1800 nM | 4080 nM
FC(F)(F)c1ccc(-c2cnc(-c3ncon3)nc2NC2CCCCCC2)cc1 | 48500 nM | > 100000 nM
C#Cc1nc(/C=C/CCCCCCC(=O)NO)cs1 | 2130 nM | 8650 nM
CC1=C2[C@@H](CC1)[C@]1(C)O[C@@](c3ccccc3)(C[C@H]1OC(=O)CO)[C@H]2OC(=O)/C=C/c1ccccc1 | 17900 nM | 46000 nM
O=C(/C=C\c1cccc([N+](=O)[O-])c1)/C=C/c1cccc([N+](=O)[O-])c1 | 3430 nM | 55500 nM
CCCCCCCCCCCCCCCCCC1=NCCN1CCOC1=C(Cl)C(=O)c2ccccc2C1=O | 1640 nM | 3270 nM
CC(C)NCCCn1c(Sc2cc3c(cc2I)OCO3)nc2c(N)ncnc21 | 82.7 nM | 3620 nM
O=C1c2c(c3c4ccccc4[nH]c3c3ccc4ccccc4c23)C(=O)N1CCN1CCNCC1 | 1650 nM | 3300 nM
CC(C)=CCc1c(O)c(CC=C(C)C)c2c(c1O)C(=O)C1=C[C@@H]3C[C@H]4C(C)(C)O[C@@](C/C=C(\C)C(=O)O)(C3=O)[C@@]14O2 | 24100 nM | 48600 nM
CN1CCN(C(=O)c2cc(-c3ccc4ncnc(N5CCc6cc(F)c(Cl)cc65)c4c3)cnc2N)CC1 | 120 nM | 365 nM
Nc1nc(OCc2ccccc2)c2[nH]cnc2n1 | 28100 nM and 34900 nM | 207000 nM
O=C(/C=C/c1cc2ccccc2[nH]c1=O)/C=C/c1cc2ccccc2[nH]c1=O | 7330 nM | 15500 nM
Cc1ccc(/C=N\NC(=O)c2[nH]c3ccc(F)cc3c2-c2ccccc2)cc1 | 24 nM | 67.4 nM

SMILES | GI50 | TGI
O=C1CCC(N2Cc3cc(CNC(=O)C(F)(F)c4ccc(Cl)cc4)ccc3C2=O)C(=O)N1 (stereo not drawn) | 48.1 nM | 
CCCN(CCS(C)(=O)=O)Cc1ccc(-c2ccc3ncnc(Nc4ccc(OCc5cccc(F)c5)c(Cl)c4)c3c2)o1 | 75.2 nM | 877 nM
C=CC(=O)Nc1cccc(Oc2nc(Nc3ccc(N4CCN(C)CC4)cc3)nc3ccsc23)c1 | 267 nM and 570 nM | 1750 nM and 3360 nM
CCc1ccc2c(c1)N(CCO)C1=C(C(=O)OC1)C2c1cccc(Br)c1 (stereo not drawn) | 164 nM | 660 nM
C1CCC([PH+](C2CCCCC2)C2CCCCC2[PH+](C2CCCCC2)C2CCCCC2)CC1.[Au].[CH-]1CCCCC1CC1CCCC[N-]1 (stereo not drawn) | 161 nM | 631 nM
CC(C)C[C@H](NC(=O)CNC(=O)c1cc(Cl)ccc1Cl)B1OC(=O)CC(CC(=O)O)(C(=O)O)O1 (stereo partly drawn) | 17 nM | 38.5 nM
CN=c1ccc2nc3ccc(N)cc3sc-2c1 | 2900 nM | 17100 nM
COc1ccc(-c2[nH]c3ccccc3c2-c2ccc(OC)cc2)cc1 | 2430 nM | 7180 nM
CCOc1ccccc1C(=O)N1CCN(c2cc(Cl)cc(Cl)c2)CC1 | 29.2 nM | 2870 nM
CN(C)CCCn1c(=O)c2ccccc2c2ccccc21 | 6180 nM | 20100 nM
OCc1ccc(N2CCCC2c2ccccc2)cc1Cl (stereo not drawn) | 117 nM | 448 nM
OCC1OC(n2cnc3c(N/N=C\c4ccccn4)ncnc32)C(O)C1O (stereo not drawn) | 187 nM | 508 nM
COc1ccc2cc1Oc1ccc(cc1)C[C@H]1c3c(cc4c(c3Oc3cc5c(cc3OC)CCN(C)[C@@H]5C2)OCO4)CCN1C | 593 nM | 2310 nM
CO[C@H]1CC(O[C@@H]2/C(C)=C/C[C@@H]3C[C@@H](C[C@]4(C=C[C@H](C)[C@@H](C5CCCCC5)O4)O3)OC(=O)[C@@H]3C=C(C)[C@@H](O)[C@H]4OC/C(=C\C=C\[C@@H]2C)[C@]43O)O[C@@H](C)C1O[C@H]1C[C@H](OC)[C@@H](O)[C@H](C)O1 (stereo partly drawn) | 1400 nM | 3010 nM
C[C@@H]1CN(Cc2ccc(F)cc2)[C@@H](C)CN1C(=O)c1cc2c(C(=O)C(=O)N(C)C)cn(C)c2cc1Cl | 13300 nM | 45000 nM
O=C1OCC2=C1C(c1ccccc1)c1cc3c(cc1N2)OCO3 (stereo not drawn) | 27 nM | 600 nM
O=C1/C(=C/c2ccccc2[N+](=O)[O-])Cc2ccccc21 | 1380 nM | 3030 nM
CNCCCNCCCCNCCCN1C(=O)c2ccc3c4c(ccc(c24)C1=O)C(=O)N(CCCNCc1ccccc1OC)C3=O | 1890 nM | 11700 nM
CN[C@@H](C)C(=O)N[C@H](C(=O)N1CCC[C@H]1C(=O)Nc1sc(-c2ncco2)nc1-c1ccccc1)C1CCCCC1 | 11400 nM | 35700 nM
COc1ccc(-c2nc(Nc3cc(C)[nH]n3)c3ccccc3n2)cc1 | 3120 nM | > 53400 nM
N#Cc1c(N2CCOCC2)nc(=S)[nH]c1-c1ccco1 | 3510 nM | > 100000 nM
CCCCCCCCCCCCCCCCCC[n+]1ccc2c(C)c3c(c(C)c2c1)c1cc(O)ccc1n3CC | 628 nM | 4110 nM

Reference: PubChem BioAssay (NCI)
